The values that follow come from paper PMC12406664, “New derivatives of 6-nitrocoumarin-3-thiosemicarbazone exhibit improved antiparasitic activity in the placenta against Trypanosoma cruzi and Toxoplasma gondii” (Antimicrobial Agents and Chemotherapy, 2025).

Data set [1] in a line: Cyclic voltammetry, reduction potentials in DMSO (HDME, vs. Ag/AgCl). As to conditions: 2.00 V/s; for E(pIIa): anodic peak IIa; for E(pIIc): cathodic peak IIc, nitro anion radical couple; for E(pIca): cathodic peak Ica; for E(pIca) / E(pIcb): nitro reduction; for E(pIcb): cathodic peak Icb; for E(pIIIc): cathodic peak IIIc, hydroxylamine formation; for E(pIVc): cathodic peak IVc, imine reduction.
Experimental: Electrochemical studies were carried out on a Metrohm Autolab instrument model PGSTAT204, using dimethyl sulfoxide (DMSO) as the solvent (1 mM solutions), tetrabutylammonium perchlorate (0.1 M TBAP) as the supporting electrolyte, a hanging drop mercury electrode (HDME) as the working electrode, Ag/AgCl (3M KCl) as the reference electrode and a graphite rod as the counter electrode. All measurements were performed after bubbling with nitrogen (N2) for 10 minutes.

Data set [2] concerns T. gondii tachyzoites, RH strain. As to the kind of experiment: Resazurin viability assay on free T. gondii tachyzoites. The conditions noted are these: Toxoplasma gondii; tachyzoites RH; 100 µM; 24 h. Type of data set: cell-based, Toxoplasma gondii. The source says: Untreated parasites served as a negative control.
Data set [3] can be described thus: Lipophilicity by reversed-phase TLC (RM). As to conditions: reverse phase-C18, DMSO/phosphate buffer pH 7.4 (70:30 vol/vol), RM = log[(1/Rf) – 1].
Experimental: Lipophilicity was studied by reversed-phase TLC experiments. Precoated TLC plates SIL RP-18W/UV254 were used and eluted with DMSO/physiological serum (70:30, vol/vol). Stock solutions were prepared in pure DMSO (Aldrich) prior to use. The plates were developed in a closed chromatographic tank, dried, and the spots were located under UV light. The Rf values were averaged from three determinations and converted into RM values via the relationship: RM = log [(1/Rf)−1]
Data set [4] concerns T. cruzi trypomastigotes, Dm28 strain. The experiment in a line: Resazurin viability assay on free T. cruzi trypomastigotes. The conditions noted are these: Trypanosoma cruzi, 24 h, read-out: Viability T. cruzi (%). As to the method:
The reduction of resazurin sodium salt was used to determine the trypanocidal and toxoplasmicidal activity of the 6-nitrocoumarin-thiosemicarbazone hybrids 1–8. For this, treatment with the compounds was carried out for 24 h at a concentration of 100 µM.
NFX was used as a positive control for T. cruzi, and PMN was used for T. gondii. Untreated parasites served as a negative control. […] Subsequently, parasites with their respective conditions were transferred to a 96-well white fluorescence reading plate, adding resazurin at a final concentration of […] with 0.8 mM phenazine. The plate was incubated for 3 hours at 37°C in a humidified atmosphere with 5% CO2, and fluorescence measurements were taken using a microplate reader (Thermo Scientific Varioskan Flash) at excitation wavelengths of 560 nm and emission wavelengths of 590 nm.

For the next data set, the system named is T. cruzi. More on the design: method as in ref 28 (b), 32, 33 (c, d). The conditions noted are these: Fig. 2 literature compounds; ref 28 (b), 32, 33 (c, d); cited from earlier work.
The test system of the next data set is T. gondii. More on the design: method as in ref 26 (a), 34 (e), 38 (f). The conditions noted are these: Fig. 2 literature compounds; ref 26 (a), 34 (e), 38 (f); cited from earlier work.

For `C/C(=N\NC(=S)Nc1ccccc1)c1c(O)c2cc([N+](=O)[O-])ccc2oc1=O` [Compound 4, (E)−2-(1-(4-hydroxy-6-nitro-2-oxo-2H-chromen-3-yl)ethylidene)-N-phenylhydrazine-1-carbothioamide], in data set [1], the “E(pIIa)” value was −1.01 V, the “E(pIIc)” value was −1.09 V, the “E(pIca)” value is recorded as −0.62 V and the “E(pIcb)” value was −1.05 V. In addition, the viability at 100 µM in data set [2] was determined as 84.4 ± 13.7%. The “Lipophilicity (RM)” value in data set [3] is given as 0.85. Also, the viability at 100 µM in data set [4] stood at 50.3 ± 5%.
For the compound `O=c1oc2c(O)c(O)ccc2cc1-c1ccccc1O` [d], the IC50 with T. cruzi was 39.7 µM.
In the case of `O=C(O)c1cn(C2CC2)c2cc(N3CCN(Cc4ccc([N+](=O)[O-])o4)CC3)c(F)cc2c1=O` [f], the IC50 in the data set with T. gondii is 7.9 µM.
Take `CNC(=S)N/N=C(\C)c1c(O)c2cc([N+](=O)[O-])ccc2oc1=O` [Compound 2, (E)−2-(1-(4-hydroxy-6-nitro-2-oxo-2H-chromen-3-yl)ethylidene)-N-methylhydrazine-1-carbothioamide]: in data set [1], the “E(pIIa)” value is −1.01 V, the “E(pIIc)” value was −1.08 V, the “E(pIca)” value is −0.89 V and the “E(pIcb)” value was −0.99 V. In addition, in data set [2], the viability at 100 µM was 29.1 ± 13.5%. In addition, in data set [3], the “Lipophilicity (RM)” value is given as 0.13. The viability at 100 µM in data set [4] was determined as 81.5 ± 14.1%.
Regarding `COc1ccc(/C(COc2ccc(F)cc2)=N\NC(N)=S)cc1` [a], the IC50 with T. gondii is 1.09 µM.
For `CNC(=S)N/N=C(\C)c1cc2cc([N+](=O)[O-])ccc2oc1=O` [Compound 6, (E)-N-methyl-2-(1-(6-nitro-2-oxo-2H-chromen-3-yl)ethylidene)hydrazine-1-carbothioamide], in data set [1], the “E(pIIa)” value is −0.87 V, the “E(pIIIc)” value is on record as −1.40 V, the “E(pIIc)” value is −0.93 V and the “E(pIVc)” value is on record as −1.68 V. Also, in data set [2], the viability at 100 µM turned out to be 55.5 ± 9.6%. Besides, the “Lipophilicity (RM)” value in data set [3] was −0.41. For the same compound, in data set [4], the viability at 100 µM stood at 49.8 ± 5.3%.
Consider `CCNC(=S)N/N=C(\C)c1c(O)c2cc([N+](=O)[O-])ccc2oc1=O` [Compound 3, (E)-N-ethyl-2-(1-(4-hydroxy-6-nitro-2-oxo-2H-chromen-3-yl)ethylidene)hydrazine-1-carbothioamide], for which, in data set [1], the “E(pIIa)” value was −1.00 V, the “E(pIIc)” value was −1.08 V, the “E(pIca)” value is given as −0.88 V and the “E(pIcb)” value was −0.99 V. This compound yielded a viability at 100 µM in data set [2] of 49.6 ± 13.5%. The “Lipophilicity (RM)” value in data set [3] amounted to 0.33. Further, the viability at 100 µM in data set [4] came out at 70.7 ± 9.4%.
Take `C/C(=N\NC(N)=S)c1cc2cc([N+](=O)[O-])ccc2oc1=O` [Compound 5, (E)−2-(1-(6-nitro-2-oxo-2H-chromen-3-yl)ethylidene)hydrazine-1-carbothioamide]: in data set [1], the “E(pIIa)” value is −0.90 V, the “E(pIIIc)” value was approximately −1.38 V, the “E(pIIc)” value is given as approximately −0.94 V and the “E(pIVc)” value is given as approximately −1.66 V. The same compound gave a viability at 100 µM in data set [2] of 65.7 ± 14.8%. In addition, the “Lipophilicity (RM)” value in data set [3] is on record as −0.58. The viability at 100 µM in data set [4] was 44.6 ± 7.1%.
As to `NC(=S)N/N=C/c1ccc([N+](=O)[O-])o1` [b], the IC50 with T. cruzi is 9.8 µM.
Take `C/C(=N\N=C1\NC(=O)CS1)c1cc2ccccc2oc1=O` [e]: in the data set on T. gondii, the IC50 was 8 µM.
Consider `O=C(Cc1c([N+](=O)[O-])c(=O)oc2ccccc12)c1cccnc1` [c], for which the IC50 in the data set on T. cruzi is 137 µM.
